This note sets out measurements from patent US11053234B2 (GlaxoSmithKline Intellectual Property Development Limited, priority 2016, dated 2021).

Where only a bound is given, the exact number is not on record here.

T1 sequence (O60760 whole entry): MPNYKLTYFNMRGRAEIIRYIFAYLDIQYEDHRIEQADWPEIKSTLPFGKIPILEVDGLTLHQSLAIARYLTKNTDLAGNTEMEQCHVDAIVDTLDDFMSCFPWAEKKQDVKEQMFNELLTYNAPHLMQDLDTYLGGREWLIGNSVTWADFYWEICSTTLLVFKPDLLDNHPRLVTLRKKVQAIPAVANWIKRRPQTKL

The assay addresses T1, haematopoietic prostaglandin D synthase (H-PGDS) (Homo sapiens, UniProt O60760).
T1 construct: Full length human H-PGDS cDNA (Invitrogen Ultimate ORF 10H13026) was amplified by PCR; 6-His (N); TEV protease cleavage site (N); made in house; host or cells: E. coli BL21 (DE3*), vector pET22b+
In words: H-PGDS RapidFire high throughput mass spectrometry assay (conversion of PGH2 to PGD2). In kind it is biochemical. To be noted: 10 nM H-PGDS, PGH2 formed in situ by COX-2 from arachidonic acid; read-out: Potency Range (mean pIC50) (converted). The protocol: H-PGDS RapidFire™ High Throughput Mass Spectrometry Assay
The H-PGDS RapidFire™ mass spectrometric assay monitors conversion of prostaglandin H2 (PGH2) to prostaglandin D2 (PGD2) by haematopoietic prostaglandin D synthase (H-PGDS). In the assay format described here, the substrate (PGH2) is formed in situ by the action of cyclooxygenase-2 on arachidonic acid. This first step is set up to be fast, and generates a burst of PGH2 at ˜10 μM. The PGH2 is then further converted to PGD2 by the H-PGDS enzyme. […] Plates are then read on the RapidFire™ high throughput solid phase extraction system (Agilent) which incorporates a solid phase extraction step coupled to a triple quadrupole mass spectrometer (AB SCIEX). Relative levels of PGD2 and PGF2α, which acts as a surrogate for substrate, are measured and a percent conversion calculated.
Expression and Purification of H-PGDS Protein
Full length human H-PGDS cDNA (Invitrogen Ultimate ORF 10H13026) was amplified by PCR with the addition of a 5′ 6-His tag and TEV protease cleavage site. The PCR product was digested with Ndel and Xhol and ligated into pET22b+ (Merck Novagen®). Expression was carried out in E. coli strain BL21 (DE3*) using auto-induction Overnight Express™ Instant TB medium (Merck Novagen®) supplemented with 1% glycerol. The culture was first grown at 37° C. and the temperature was reduced to 25° C. when OD600 reached 2.0. Cells were harvested by centrifugation after a further 18 hr. 10 g of E. coli cell pellet was suspended to a total volume of 80 mL in lysis buffer (20 mM Tris-Cl pH 7.5, 300 mM NaCl, 20 mM imidazole, 5 mM β-mercaptoethanol, 10% glycerol). 1 mg/mL protease inhibitors (Protease Inhibitor Cocktail Set III, Merck Calbiochem®) and 1 mg/mL lysozyme were added to the cell suspension. The suspension was then sonicated for 5 min (UltraSonic Processor VCX 750, Cole-Parmer Instrument Co.) with a micro probe (50% amplitude, 10 sec on/off) and then centrifuged at 100,000 g for 90 min (at 4° C.). The supernatant was loaded onto a Ni-NTA HiTrap column (5 mL, GE Healthcare, pre-equilibrated in lysis buffer). The column was washed with 10 column volumes of lysis buffer and eluted with lysis buffer containing 500 mM imidazole. The pooled protein peak fractions were concentrated using a 10 kDa centrifugal filter at 3500 g and 4° C. (Amicon Ultra-15 centrifugal filter unit with Ultracel-10 membrane from Millipore). Further purification of the concentrated protein was carried out using gel filtration chromatography on a HiLoad 26/600 Superdex 75 preparative grade column (GE Healthcare Life Sciences) using 50 mM Tris pH 7.5, 50 mM NaCl, 1 mM dithiothreitol, 1 mM MgCl2. Fractions containing the protein were pooled, concentrated as described above, and stored at −80° C.
Expression and Purification of Cyclooxygenase-2 (COX-2) Protein
The full length human COX-2 gene (accession number L15326) was amplified by PCR to generate an EcoRI-HindIII fragment containing an in-frame FLAG tag. This was subcloned into pFastBac 1 (Invitrogen). The COX2 FLAG plasmid was recombined into the baculovirus genome according to the BAC-to-BAC protocol described by Invitrogen. Transfection into Spodoptera frugiperda (Sf9) insect cells was performed using Cellfectin (Invitrogen), according to the manufacturer's protocol. […] Cells were harvested using a continuous feed centrifuge run at 2500 g at a rate of approximately 2 L/min with cooling. The resultant cell slurry was re-centrifuged in pots (2500 g, 20 min, 4° C.) and the cell paste was stored at −80° C. […] The suspension was sonicated in 500 mL batches for 8×5 seconds at 10 u amplitude with the medium tip of an MSE probe sonicator and subsequently incubated at 4° C. for 90 min with gentle stirring. The lysate was centrifuged at 12000 rpm for 45 min at 4° C. in a Sorvall SLA1500 rotor. The supernatant (1400 mL) was added to 420 mL of 20 mM Tris-Cl pH 7.4, 150 mM NaCl, 0.1 mM EDTA to reduce the concentration of n-octyl-6-D-glucopyranoside to 1% w/v.
Regarding `O=C(c1csc(NC(=O)[C@H]2C[C@H](Oc3cc(F)ccc3OC(F)F)C2)n1)C1CC1` [Example 32, (trans)-N-(4-(Cyclopropanecarbonyl)thiazol-2-yl)-3-(2-(difluoromethoxy)-5-fluorophenoxy)cyclobutanecarboxamide], the IC50 is < 10 nM. For `CCOC(=O)Cc1csc(NC(=O)[C@H]2C[C@H](Oc3cccc4ccoc34)C2)n1` [Example 262, Ethyl 2-(2-((trans)-3-(benzofuran-7-yloxy)cyclobutanecarboxamido)thiazol-4-yl)acetate], the IC50 was 10 to 79.4 nM.

As for `CC(O)(CO[C@H]1CC[C@H](NC(=O)N2CC(Oc3cccc4scnc34)C2)CC1)C1CC1` (mixture of isomers) [Example 100, Racemic 3-(Benzo[d]thiazol-4-yloxy)-N-((trans)-4-(2-cyclopropyl-2-hydroxypropoxy)cyclohexyl)azetidine-1-carboxamide], the IC50 was 10 to 79.4 nM.

As to `O=C(Nc1ccnc(C2CC2)n1)N1CC(Oc2cc(F)cc3scnc23)C1` [Example 313, N-(2-Cyclopropylpyrimidin-4-yl)-3-((6-fluorobenzo[d]thiazol-4-yl)oxy)azetidine-1-carboxamide], the IC50 was 10 to 79.4 nM. The value for `COc1ccc(F)cc1O[C@H]1C[C@H](NC(=O)[C@H]2CC[C@H](C(C)(C)O)CC2)C1` [Example 162, (trans)-N-((trans)-3-(5-Fluoro-2-methoxyphenoxy)cyclobutyl)-4-(2-hydroxypropan-2-yl)cyclohexanecarboxamide] was 100 to 1000 nM. The value for `CCOC(=O)c1coc(NC(=O)[C@H]2C[C@H](Oc3cccc4cccnc34)C2)n1` [Example 171, ethyl 2-((trans)-3-(quinolin-8-yloxy)cyclobutanecarboxamido)oxazole-4-carboxylate] was 10 to 79.4 nM. In the case of `O=C(Nc1nc(CO)cs1)[C@H]1C[C@H](Oc2cccc3cccnc23)C1` [Example 215, (trans)-N-(4-(Hydroxymethyl)thiazol-2-yl)-3-(quinolin-8-yloxy)cyclobutanecarboxamide] it was 10 to 79.4 nM; in that of `O=C(NC1CN(c2ccnc(Cl)n2)C1)N1CC(Oc2cc(F)cc3scnc23)C1` [Example 130, N-(1-(2-Chloropyrimidin-4-yl)azetidin-3-yl)-3-((6-fluorobenzo[d]thiazol-4-yl)oxy)azetidine-1-carboxamide], 10 to 79.4 nM. On to `COc1ccccc1O[C@H]1C[C@H](C(=O)N[C@H]2CC[C@H](C(C)(C)O)CC2)C1` [Example 284, (trans)-N-((trans)-4-(2-hydroxypropan-2-yl)cyclohexyl)-3-(2-methoxyphenoxy)cyclobutanecarboxamide], for which the IC50 was 10 to 79.4 nM. The value for `O=C(NC1CN(c2ccnc(Cl)n2)C1)[C@H]1C[C@H](Oc2cc(F)ccc2OC(F)F)C1` [Example 6, (trans)-N-(1-(2-Chloropyrimidin-4-yl)azetidin-3-yl)-3-(2-(difluoromethoxy)-5-fluorophenoxy)cyclobutanecarboxamide] was 10 to 79.4 nM; that for `O=C(Nc1nc(C2CC2)co1)[C@H]1C[C@H](Oc2cccc3cccnc23)C1` [Example 178, (trans)-N-(4-Cyclopropyloxazol-2-yl)-3-(quinolin-8-yloxy)cyclobutanecarboxamide] was 10 to 79.4 nM.

`CC(C)c1csc(NC(=O)[C@H]2C[C@H](Oc3cccc4cccnc34)C2)n1` [Example 206, (trans)-N-(4-Isopropylthiazol-2-yl)-3-(quinolin-8-yloxy)cyclobutanecarboxamide]: the IC50 was < 10 nM. Turning to `CS(=O)(=O)c1ccc(NC(=O)N2CC(Oc3cccc4scnc34)C2)c(F)c1` [Example 308, 3-(Benzo[d]thiazol-4-yloxy)-N-(2-fluoro-4-(methylsulfonyl)phenyl)azetidine-1-carboxamide], the IC50 is 10 to 79.4 nM. In the case of `O=C(NC1CCN(c2ncc(F)cn2)CC1)[C@H]1C[C@H](Oc2cccc3scnc23)C1` [Example 41, (trans)-3-(Benzo[d]thiazol-4-yloxy)-N-(1-(5-fluoropyrimidin-2-yl)piperidin-4-yl)cyclobutanecarboxamide] it was 10 to 79.4 nM; in that of `Cc1cccc(NC(=O)[C@H]2C[C@H](Oc3cccc4cccnc34)C2)n1` [Example 181, (trans)-N-(6-Methylpyridin-2-yl)-3-(quinolin-8-yloxy)cyclobutanecarboxamide], 10 to 79.4 nM.

As for `NC(=O)c1ccc(N2CC(NC(=O)[C@H]3C[C@H](Oc4cc(F)cc5scnc45)C3)C2)nc1` [Example 110, 6-(3-((trans)-3-(6-Fluorobenzo[d]thiazol-4-yloxy)cyclobutanecarboxamido)azetidin-1-yl)nicotinamide], the IC50 is 10 to 79.4 nM. `CCOC(=O)Cc1nnc(NC(=O)[C@H]2C[C@H](Oc3cccc4ccoc34)C2)s1` [Example 263, Ethyl 2-(5-((trans)-3-(benzofuran-7-yloxy)cyclobutanecarboxamido)-1,3,4-thiadiazol-2-yl)acetate]: the IC50 was 10 to 79.4 nM. For `CC(C)(O)[C@H]1CC[C@H](NC(=O)[C@H]2C[C@H](Oc3cccc4c3OCC4)C2)CC1` [Example 268, (trans)-3-((2,3-Dihydrobenzofuran-7-yl)oxy)-N-((trans)-4-(2-hydroxypropan-2-yl)cyclohexyl)cyclobutanecarboxamide], the IC50 was 10 to 79.4 nM.

Take `Cn1cc(NC(=O)N2CC(Oc3cccc4scnc34)C2)cn1` [Example 324, 3-(Benzo[d]thiazol-4-yloxy)-N-(1-methyl-1H-pyrazol-4-yl)azetidine-1-carboxamide]: the IC50 was 100 to 1000 nM. In the case of `COc1ccc(F)cc1O[C@H]1C[C@H](C(=O)NC2CCN(c3nccs3)CC2)C1` [Example 154, (trans)-3-(5-Fluoro-2-methoxyphenoxy)-N-(1-(thiazol-2-yl)piperidin-4-yl)cyclobutanecarboxamide] it was 10 to 79.4 nM; in that of `CC(C)(O)[C@H]1CC[C@H](NC(=O)[C@H]2C[C@H](Oc3cccc(F)c3)C2)CC1` [Example 289, (trans)-3-(3-Fluorophenoxy)-N-((trans)-4-(2-hydroxypropan-2-yl)cyclohexyl)cyclobutanecarboxamide], 100 to 1000 nM; in that of `COCCO[C@H]1CC[C@H](NC(=O)[C@H]2C[C@H](Oc3cc(F)cc4scnc34)C2)CC1` [Example 115, (trans)-3-((6-Fluorobenzo[d]thiazol-4-yl)oxy)-N-((trans)-4-(2-methoxyethoxy)cyclohexyl)cyclobutanecarboxamide], 100 to 1000 nM.

Take `O=C(NC1CCCCC1)N1CC(Oc2cccc3scnc23)C1` [Example 64, 3-(Benzo[d]thiazol-4-yloxy)-N-cyclohexylazetidine-1-carboxamide]: the IC50 is 100 to 1000 nM. `C[C@]1(O)C[C@@H](NC(=O)[C@H]2C[C@H](Oc3cc(F)cc4scnc34)C2)C1` [Example 131, (trans)-3-((6-Fluorobenzo[d]thiazol-4-yl)oxy)-N-((cis)-3-hydroxy-3-methylcyclobutyl)cyclobutanecarboxamide]: the IC50 was 100 to 1000 nM.

On to `CC(=O)c1csc(NC(=O)N2CC(Oc3cccc4scnc34)C2)n1` [Example 62, N-(4-Acetylthiazol-2-yl)-3-(benzo[d]thiazol-4-yloxy)azetidine-1-carboxamide], for which the IC50 is 10 to 79.4 nM.
